Assay results reported in patent US20100048548A1, “IMINO-OXAZOLIDINES AND USE THEREOF” (Bayer HealthCare AG, priority 2005, published 2010).

Tests used:
[1] = target: T1, plasmin (Homo sapiens, UniProt P00747); experiment: Determination of the selectivity: plasmin inhibition (chromogenic substrate); type: biochemical; settings: plasmin 3.2 nmol/l, Chromozym Plasmin, 37° C., pH 8.0
T1 construct: To determine the enzymatic activity of trypsin (500 mU/ml) and plasmin (3.2 nmol/l)
Method: (§1) To assess selective FXa inhibition, the test substances are examined for their inhibition of other human serine proteases such as trypsin and plasmin. To determine the enzymatic activity of trypsin (500 mU/ml) and plasmin (3.2 nmol/l), these enzymes are dissolved in Tris buffer (100 mmol/l, 20 mmol/l CaCl2, pH=8.0) and incubated with test substance or solvent for 10 minutes. The enzymatic reaction is then started by adding the corresponding specific chromogenic substrates (Chromozym Trypsin® and Chromozym Plasmin®; from Roche Diagnostics) and the extinction at 405 nm is determined after 20 minutes. All determinations are carried out at 37° C.

[2] = system: trypsin; experiment: Determination of the selectivity: trypsin inhibition (chromogenic substrate); type: biochemical, human; settings: trypsin 500 mU/ml, Chromozym Trypsin, 37° C., pH 8.0
Method: as §1

[3] = target: T2, human factor Xa (FXa) (Homo sapiens, UniProt P00742); experiment: Determination of the factor Xa inhibition (chromogenic substrate); type: biochemical; settings: human FXa 0.5 nmol/l, Pefachrome FXa 150 μmol/l, 25° C., pH 8.3
T2 construct: factor Xa, which is formed from the proenzyme factor X
Method: The enzymatic inhibition of human factor Xa (FXa) is measured using the conversion of a chromogenic substrate specific for FXa. Factor Xa cleaves p-nitroaniline from the chromogenic substrate. The determinations are carried out in microtitre plates as follows:
The test substances, in various concentrations, are dissolved in DMSO and incubated for 10 minutes at 25° C. with human FXa (0.5 nmol/l dissolved in 50 mmol/l of Tris buffer [C,C,C-tris(hydroxymethyl)aminomethane], 150 mmol/l of NaCl, 0.1% BSA [bovine serum albumin], pH=8.3). Pure DMSO is used as control. The chromogenic substrate (150 μmol/l Pefachrome® FXa from Pentapharm) is then added. After an incubation time of 20 minutes at 25° C., the extinction at 405 nm is determined.

T2 sequence (P00742 235-488 limits assumed): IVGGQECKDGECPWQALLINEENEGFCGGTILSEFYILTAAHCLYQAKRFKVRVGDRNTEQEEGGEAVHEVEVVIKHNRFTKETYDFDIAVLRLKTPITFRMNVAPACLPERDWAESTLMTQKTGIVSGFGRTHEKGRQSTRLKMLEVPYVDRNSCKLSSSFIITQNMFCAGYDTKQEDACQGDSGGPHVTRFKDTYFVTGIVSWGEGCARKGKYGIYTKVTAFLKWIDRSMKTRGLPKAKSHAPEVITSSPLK
T2 sequence (P00742 41-179 partner limits assumed): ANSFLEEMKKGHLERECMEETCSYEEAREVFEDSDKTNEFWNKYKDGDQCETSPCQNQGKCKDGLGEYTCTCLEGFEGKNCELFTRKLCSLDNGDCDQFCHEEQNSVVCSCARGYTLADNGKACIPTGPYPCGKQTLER
T1 sequence (P00747 581-810 limits assumed): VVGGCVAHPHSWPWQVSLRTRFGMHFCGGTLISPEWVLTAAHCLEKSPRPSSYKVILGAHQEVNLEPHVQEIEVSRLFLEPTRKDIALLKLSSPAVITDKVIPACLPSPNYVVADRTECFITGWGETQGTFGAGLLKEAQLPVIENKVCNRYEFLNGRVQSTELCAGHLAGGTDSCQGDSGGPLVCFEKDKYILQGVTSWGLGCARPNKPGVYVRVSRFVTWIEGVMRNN
T1 sequence (P00747 97-580 partner limits assumed): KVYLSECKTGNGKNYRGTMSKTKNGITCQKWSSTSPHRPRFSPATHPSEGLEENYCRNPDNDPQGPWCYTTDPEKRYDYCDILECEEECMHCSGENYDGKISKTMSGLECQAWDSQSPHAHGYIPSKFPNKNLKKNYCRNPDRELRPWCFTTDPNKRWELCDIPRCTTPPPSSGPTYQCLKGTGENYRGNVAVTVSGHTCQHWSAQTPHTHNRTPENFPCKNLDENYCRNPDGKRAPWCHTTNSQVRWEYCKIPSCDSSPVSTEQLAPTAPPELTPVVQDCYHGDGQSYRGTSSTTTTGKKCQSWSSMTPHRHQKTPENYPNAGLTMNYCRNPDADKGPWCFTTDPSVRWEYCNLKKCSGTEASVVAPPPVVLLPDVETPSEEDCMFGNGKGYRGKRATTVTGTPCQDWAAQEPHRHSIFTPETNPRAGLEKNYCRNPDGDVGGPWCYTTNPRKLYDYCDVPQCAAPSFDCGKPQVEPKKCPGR

IC50 [1]: > 10 µM
IC50 [2]: > 10 µM
IC50 [3]: 0.0054 µM
Compound: N=C1O[C@@H](CNC(=O)c2ccc(Cl)s2)CN1c1ccc(N2CCOCC2=O)cc1 [Example 1, 5-Chloro-N-({(5S)-2-imino-3-[4-(3-oxomorpholin-4-yl)phenyl]-1,3-oxazolidin-5-yl}methyl)-thiophene-2-carboxamide]
